# From PMC12606866, “Phenolic Compounds from Diarthron iranica: Enzymatic and in Silico Insights Into α-Amylase Inhibitory Activity” (Iranian Journal of Pharmaceutical Research : IJPR, 2025)
# Target: α-amylase
# Experiment: DNS colorimetric alpha-amylase inhibition assay with starch
# Type: biochemical
row,SMILES,IC50
1,"COc1cc(O[C@@H]2O[C@H](CO[C@@H]3OC[C@@H](O)[C@H](O)[C@H]3O)[C@@H](O)[C@H](O)[C@H]2O)c2c(=O)cc(-c3ccc(O)cc3)oc2c1 [compound 1, 5-[(β)-D-xylopyranoside-(1'''→6'')-β-D-glucopyranoside] 7-Methoxy apigenin]",1320 µg/mL
2,"COc1cc2cc(Oc3ccc4ccc(=O)oc4c3)c(=O)oc2cc1O [compound 2, 6'-Methoxy-7'-hydroxy-3'-O-7-bicoumarin]",710 µg/mL
3,"COc1cc([C@H]2OC[C@H]3[C@@H]2CO[C@@H]3c2ccc(O)c(OC)c2)ccc1O [compound 3, 4,4'-dihydroxy-3,3'-dimethoxy-7, 9’:7’, 9-diepoxylignan]",1810 µg/mL
4,"O=c1cc(-c2ccc(O)c(O)c2)oc2cc(O)cc(O)c12 [luteolin, reference compound]",630 µg/mL
